The text below walks through data of patent publication US20180110762A1, “Compositions Methods for Treating Chronic Kidney Disease” (Merck Sharp & Dohme Corp, priority 2015, published 2018).

The structures appear in SMILES notation.

The subject of assay [1] is male obese ZSF1 rats (diabetic nephropathy model). The assay is described as follows: ZSF1 rat study: kidney collagen I and III immunostaining. The assay is classed as in vivo. As to the method: The effects of Compound A (“A”) on renal function, plasma triglycerides, plasma cholesterol, kidney collagen I, kidney collagen III, renal histology, glomerular filtration rate, fibrosis score, and mRNA gene expression (profibrotic genes and integrin β3) were evaluated in male obese ZSF1 rats (a hybrid F1 of Zucker diabetic fatty rat and spontaneously hypertensive heart failure rat; a diabetic nephropathy model) when administered as in-feed for 28 weeks. Sixty obese male ZSF1 rats were randomized to five groups: Obese control (n=12), Compound A 60 mpk (n=12), Compound A 200 mpk (n=12), Compound A 400 mpk (n=12), Enalapril 10 mpk (n=12); Eight lean male ZSF1 rats were used for normal control. Renal functional changes were monitored by blood and urine analysis following in-feed dosing for 28 weeks. Compound exposure was also monitored during the study.
Following deparaffinization and rehydration, each kidney tissue section was processed to identify collagen I and III deposition. The primary antibodies used were rabbit anti-type I collagen polyclonal antibody (Abcam, Cambridge, Mass.) diluted at 2 ug/ml, and rabbit anti-type III collagen polyclonal antibody (Lifespan, Seattle, Wash.) at 3 ug/ml. The signal was developed by using Super PicTure HRP Polymer Rabbit Primary kit (Invitrogen) and the slides were counterstained with hematoxylin. The Aperio ScanScope XT Slide Scanner (Aperio Technologies, Vista, Calif.) system was used to capture whole slide digital images with a 20× objective. Digital images were managed using Aperio Spectrum. The positive stains were identified and quantified using a macro created from a color deconvolution algorithm (Aperio Technologies, Vista, Calif.).

Assay [2] deals with T1, Human recombinant integrin αvβ3 (Homo sapiens, UniProt P05106+P06756).
T1 construct: purchased R&D Systems
T1 sequence (P06756 31-992 limits assumed): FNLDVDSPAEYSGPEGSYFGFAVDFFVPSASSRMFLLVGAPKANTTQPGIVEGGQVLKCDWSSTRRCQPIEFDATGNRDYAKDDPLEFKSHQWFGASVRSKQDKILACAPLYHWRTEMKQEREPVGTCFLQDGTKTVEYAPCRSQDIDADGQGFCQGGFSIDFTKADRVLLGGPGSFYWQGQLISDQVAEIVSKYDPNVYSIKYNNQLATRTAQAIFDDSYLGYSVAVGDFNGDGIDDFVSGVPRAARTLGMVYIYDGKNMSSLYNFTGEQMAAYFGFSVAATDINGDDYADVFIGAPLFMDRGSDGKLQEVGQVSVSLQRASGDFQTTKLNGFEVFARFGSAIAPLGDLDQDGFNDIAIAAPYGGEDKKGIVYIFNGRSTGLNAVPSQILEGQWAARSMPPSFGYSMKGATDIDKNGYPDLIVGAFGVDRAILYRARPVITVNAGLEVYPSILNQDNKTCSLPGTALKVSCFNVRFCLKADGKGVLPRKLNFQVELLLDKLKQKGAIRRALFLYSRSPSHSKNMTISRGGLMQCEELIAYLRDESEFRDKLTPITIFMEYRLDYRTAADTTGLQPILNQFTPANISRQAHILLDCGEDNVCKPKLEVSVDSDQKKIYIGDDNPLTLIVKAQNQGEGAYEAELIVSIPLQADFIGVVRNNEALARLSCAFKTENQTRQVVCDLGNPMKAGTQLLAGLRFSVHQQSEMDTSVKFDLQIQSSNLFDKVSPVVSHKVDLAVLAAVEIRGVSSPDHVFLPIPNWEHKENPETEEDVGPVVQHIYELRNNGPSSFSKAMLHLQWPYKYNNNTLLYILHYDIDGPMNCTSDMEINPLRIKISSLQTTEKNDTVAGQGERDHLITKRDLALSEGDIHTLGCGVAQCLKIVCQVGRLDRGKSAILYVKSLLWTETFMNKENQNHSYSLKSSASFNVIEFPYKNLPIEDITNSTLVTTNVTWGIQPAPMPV
T1 sequence (P05106 27-718 limits assumed): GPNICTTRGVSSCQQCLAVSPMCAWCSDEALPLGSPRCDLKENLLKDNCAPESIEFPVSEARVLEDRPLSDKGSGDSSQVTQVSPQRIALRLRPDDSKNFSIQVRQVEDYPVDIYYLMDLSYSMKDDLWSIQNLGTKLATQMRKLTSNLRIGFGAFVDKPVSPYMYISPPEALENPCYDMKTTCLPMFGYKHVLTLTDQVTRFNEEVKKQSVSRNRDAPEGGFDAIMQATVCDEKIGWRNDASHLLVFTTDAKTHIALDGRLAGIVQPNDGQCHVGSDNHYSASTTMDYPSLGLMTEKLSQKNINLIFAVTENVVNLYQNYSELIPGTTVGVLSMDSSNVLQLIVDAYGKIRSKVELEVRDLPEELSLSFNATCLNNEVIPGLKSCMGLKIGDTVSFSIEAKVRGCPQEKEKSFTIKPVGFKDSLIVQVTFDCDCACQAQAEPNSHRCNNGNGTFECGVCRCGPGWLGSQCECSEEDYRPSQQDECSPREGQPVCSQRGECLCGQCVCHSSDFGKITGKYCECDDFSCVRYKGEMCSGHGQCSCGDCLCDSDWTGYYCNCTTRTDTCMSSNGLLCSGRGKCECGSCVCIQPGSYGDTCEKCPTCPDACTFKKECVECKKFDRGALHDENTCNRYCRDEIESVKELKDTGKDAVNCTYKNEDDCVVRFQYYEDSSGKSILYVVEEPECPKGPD
The assay is described as follows: Solid phase receptor assay, αvβ3 (vitronectin). The format is binding. On the procedure: (§1) The assay was performed according to the method described in International Patent Publication WO 2014/015054 A1 “Beta Amino Acid Derivatives As Integrin Antagonists.” Briefly, 96-well plates were coated overnight with purified fibronectin or vitronectin (R&D Systems) in TBS+ buffer (25 mM Tris 7.4, 137 mM NaCl, 2.7 mM KCl, 1 mM CaCl2, 1 mM MgCl2, 1 mM MnCl2). Compound A was added at different concentrations to recombinant human integrin proteins (R&D Systems) reconstituted in TBS+/0.1% bovine serum albumin, and 50 μL of this mixture were added to the empty wells of the coated plate and incubated for 1-2 hours. After 3 washes, 50 μL of biotinylated antibody (R&D Systems) in TBS+/0.1% bovine serum albumin were added. The procedure continued with three more washes, addition of 50 μL of streptavidin-conjugated horseradish peroxidase (R&D Systems), and incubation for 20 minutes. After 3 more washes, 50 μL of tetramethylbenzidine (TMB) substrate (SIGMA) were added and plates were read after 20 min by colorimetric detection at 650 nm wavelength in an EnVision Multilabel Plate Reader (Perkin Elmer). The concentrations of fibronectin used were: 2 μg/mL for the α5β1 assay and 5 μg/mL for the αvβ1 assay. The concentrations of vitronectin used were: 1 μg/mL for the αvβ3 assay and 0.25 μg/mL for the αvβ5 assay. […]

Assay [3] concerns the target T1, Human recombinant integrin αvβ3. The assay can be described thus: Thermal shift assay (differential scanning fluorimetry), αvβ3. The assay is classed as binding. To be noted: αvβ3, 20 μM Compound A. On the procedure: (§2) Differential scanning fluorimetry was performed on a LightCycler 480 II, real-time PCR instrument (Roche Diagnostics). Human recombinant integrins from R&D Systems (αvβ1, αvβ3 and α5β1) were reconstituted at a concentration of […] in assay buffer (20 mM HEPES, pH=7.3, 100 mM NaCl, 1 mM MgCl2, 1 mM MnCl2) and diluted in assay buffer with Sypro orange (SIGMA) to a final concentration of 400 nM integrin and 5× Sypro orange. A volume of 4.9 μL of this mixture of protein and dye was transferred to a 384-well plate and 100 nL of DMSO or Compound A, dissolved in DMSO, were added using an Echo 555 instrument (Labcyte). The final concentration of Compound A in the assay was 20 μM. After mixing, the assay plate was sealed, spun at 1,000×g for two minutes, and subsequently heated from 25 to 99° C. over the course of 31 min in the LightCycler 480 II instrument. Fluorescence intensity was measured using excitation/emission wavelengths of 465 and 580 nm, respectively. Changes in protein thermal stability (ΔTm) upon compound binding were analyzed by using LightCycler 480 (software provided by the manufacturer).

The target in assay [4] is T2, Human recombinant integrin α5β1 (Homo sapiens, UniProt P05556+P08648).
T2 construct: purchased R&D Systems
T2 sequence (P08648 42-995 limits assumed): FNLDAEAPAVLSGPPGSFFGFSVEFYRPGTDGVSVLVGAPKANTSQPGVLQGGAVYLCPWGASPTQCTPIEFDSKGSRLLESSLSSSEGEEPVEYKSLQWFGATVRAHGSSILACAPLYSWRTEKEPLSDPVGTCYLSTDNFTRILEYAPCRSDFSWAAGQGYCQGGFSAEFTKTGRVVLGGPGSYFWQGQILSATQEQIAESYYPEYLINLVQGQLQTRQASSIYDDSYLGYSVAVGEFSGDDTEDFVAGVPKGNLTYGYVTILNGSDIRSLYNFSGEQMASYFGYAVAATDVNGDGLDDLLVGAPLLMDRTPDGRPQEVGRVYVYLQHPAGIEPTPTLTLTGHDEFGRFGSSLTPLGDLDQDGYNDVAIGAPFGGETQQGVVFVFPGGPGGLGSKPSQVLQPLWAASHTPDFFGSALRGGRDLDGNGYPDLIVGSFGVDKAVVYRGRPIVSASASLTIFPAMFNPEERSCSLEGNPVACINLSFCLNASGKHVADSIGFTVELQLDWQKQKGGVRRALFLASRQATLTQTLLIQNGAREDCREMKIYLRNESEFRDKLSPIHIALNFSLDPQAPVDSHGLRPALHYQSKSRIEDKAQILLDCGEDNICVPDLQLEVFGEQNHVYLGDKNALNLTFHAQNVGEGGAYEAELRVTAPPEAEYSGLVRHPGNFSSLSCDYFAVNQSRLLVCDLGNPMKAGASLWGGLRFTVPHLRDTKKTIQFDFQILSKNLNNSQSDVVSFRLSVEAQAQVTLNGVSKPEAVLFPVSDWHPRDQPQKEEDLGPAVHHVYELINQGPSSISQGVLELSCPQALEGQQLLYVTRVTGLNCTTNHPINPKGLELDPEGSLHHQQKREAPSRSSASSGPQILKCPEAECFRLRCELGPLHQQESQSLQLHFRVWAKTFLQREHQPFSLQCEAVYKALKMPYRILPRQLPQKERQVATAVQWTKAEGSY
T2 sequence (P05556 21-728 limits assumed): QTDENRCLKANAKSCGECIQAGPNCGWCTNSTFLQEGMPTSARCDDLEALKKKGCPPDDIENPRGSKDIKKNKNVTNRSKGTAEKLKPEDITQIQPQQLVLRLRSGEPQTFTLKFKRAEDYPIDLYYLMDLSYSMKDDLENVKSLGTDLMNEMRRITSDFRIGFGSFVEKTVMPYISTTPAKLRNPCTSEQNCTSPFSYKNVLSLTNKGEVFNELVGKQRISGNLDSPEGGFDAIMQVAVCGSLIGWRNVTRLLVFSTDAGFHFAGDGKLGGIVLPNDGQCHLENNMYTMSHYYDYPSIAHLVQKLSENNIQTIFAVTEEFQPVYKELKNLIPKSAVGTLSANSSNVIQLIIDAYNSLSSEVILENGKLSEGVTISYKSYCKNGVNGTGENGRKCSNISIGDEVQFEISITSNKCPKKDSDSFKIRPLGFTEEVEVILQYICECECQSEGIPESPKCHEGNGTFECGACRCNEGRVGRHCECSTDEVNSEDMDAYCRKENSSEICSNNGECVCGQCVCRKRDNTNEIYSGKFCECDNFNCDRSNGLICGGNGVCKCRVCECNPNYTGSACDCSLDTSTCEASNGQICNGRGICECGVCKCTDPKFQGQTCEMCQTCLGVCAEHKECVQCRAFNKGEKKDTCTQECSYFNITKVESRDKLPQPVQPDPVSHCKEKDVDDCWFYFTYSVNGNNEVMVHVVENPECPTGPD
The assay can be described thus: Solid phase receptor assay, α5β1 (fibronectin). The format is binding. As to the method:
as §1

The target in assay [5] is T2, Human recombinant integrin α5β1. The assay can be described thus: Thermal shift assay (differential scanning fluorimetry), α5β1. The following applies: α5β1, 20 μM Compound A. The assay is classed as binding. On the procedure: as §2
The mark [6] stands for this setting: obese ZSF1 rats, 400 mpk in-feed, week 28.

Consider `COc1ccc([C@H](CC(=O)O)N2CCN(CCCc3ccc4c(n3)NCCC4)C2=O)cn1` [Compound A, 3-{2-Oxo-3-[3-(5,6,7,8-tetrahydro-[1,8]naphthyridin-2-yl)-propyl]imidazolidin-1-yl}-3 (S)-(6-methoxy-pyridin-3-yl)-propionic acid], for which the “effect on kidney collagen I protein levels vs Obese Vehicle” value in assay [1] (400 mpk at week 28) is on record as “significantly decreased”. The “effect on kidney collagen III protein levels vs Obese Vehicle” value in assay [1] (400 mpk at week 28) was “significantly decreased”. Further, the “kidney collagen I protein levels” value is given as 39.79 ± 0.82 % of area in assay [1] (obese ZSF1 rats, 200 mpk in-feed, week 28) and 36.45 ± 0.85 % of area in assay [1] (setting [6]). In assay [1] (setting [6]), the “kidney collagen III protein levels” value is on record as 19.23 ± 0.76 % of area. In addition, the IC50 is 5.2 nM in assay [2] (αvβ3, first of two experiments); 0.33 nM in assay [2] (αvβ3, second of two experiments); 4.9 nM in assay [4] (α5β1, first of two experiments); 19.6 nM in assay [4] (α5β1, second of two experiments). For the same compound, the ΔTm at 20 µM in assay [3] (first of two experiments) was 21.5 °C; in assay [3] (second of two experiments), 16.4 °C; in assay [5] (first of two experiments), 8.1 °C; in assay [5] (second of two experiments), 14 °C.

The term IC50 denotes the concentration that inhibits the measured activity by half. The term ΔTm denotes the change in melting temperature against a reference sample.
